Data reported in patent publication US10865384B2, “2,4,5-tri-substituted azole-based casein kinase 1 inhibitors as inducers for cardiomyogenesis” (AGENCY FOR SCIENCE, TECHNOLOGY AND RESEARCH, priority 2014, dated 2020).

Tested on: hESC3 Nkx2.5eGFP/w cells
Assay: Differentiation in 96-U bottom ultra-low attachment well plates, GFP area imaging
Assay type: cell-based, human
Conditions: 5 μM; for Average GFP %: after CHIR99021, read on day 14, GFP area over embryoid body size; for Average GFP μm^2 / Average Area μm^2: day 14; for Average Area μm^2: embryoid body size; for Cardiogenic properties: at specific time course (induction day 2 or 3)

| Structure (SMILES) | Average GFP % (Induction Day 2) [%] | Average GFP μm^2 (Induction Day 2) [μm^2] | Average Area μm^2 (Induction Day 2) [μm^2] | Average GFP % (Induction Day 3) [%] | Average GFP μm^2 (Induction Day 3) [μm^2] | Average Area μm^2 (Induction Day 3) [μm^2] | Cardiogenic properties |
| --- | --- | --- | --- | --- | --- | --- | --- |
| Cc1cccc(C)c1-c1nc(-c2ccc(F)cc2)c(-c2ccncc2)[nH]1 [ZQX-28, 4-[2-(2,6-dimethylphenyl)-4(5)-(4-fluorophenyl)-1H-imidazol-5(4)-yl]pyridine] | 0.0 | 0.0 | 302.4 | 2.1 | 6.1 | 271.7 |  |
| COc1ccc([N+](=O)[O-])cc1-c1nc(-c2ccc(F)cc2)c(-c2ccncc2)[nH]1 [ZQX-32, 4-[2-(2-methoxy-5-nitrophenyl)-4(5)-(4-fluorophenyl)-1H-imidazol-5(4)-yl]pyridine] | 32.8 | 157.6 | 483.6 | 4.6 | 41.0 | 790.4 |  |
| Nc1ccccc1-c1nc(-c2ccc(F)cc2)c(-c2ccncc2)[nH]1 [ZQX-31, 4-[2-(2-aminophenyl)-4(5)-(4-fluorophenyl)-1H-imidazol-5(4)-yl]pyridine] | 28.9 | 258.3 | 891.2 | 5.1 | 96.0 | 1662.3 |  |
| Cc1ccccc1-c1nc(-c2ccc(F)cc2)c(-c2ccncc2)[nH]1 [ZQX-29, 4-[4(5)-(4-fluorophenyl)-2-(2-methylphenyl)-1H-imidazol-5(4)-yl]pyridine] | 28.6 | 277.1 | 876.4 | 2.7 | 39.9 | 1296.6 |  |
| O=[N+]([O-])c1ccccc1-c1nc(-c2ccc(F)cc2)c(-c2ccncc2)[nH]1 [ZQX-27, 4-[4(5)-(4-fluorophenyl)-2-(2-nitrophenyl)-1H-imidazol-5(4)-yl]pyridine] | 15.1 | 258.6 | 1469.4 | 3.4 | 57.9 | 1758.3 |  |
| Fc1ccc(-c2nc(-c3ccccc3Cl)[nH]c2-c2ccncc2)cc1 [ZQX-17, 4-[2-(2-chlorophenyl)-4(5)-(4-fluorophenyl)-1H-imidazol-5(4)-yl]pyridine] | 30.4 | 183.0 | 586.7 | 24.6 | 232.7 | 971.6 |  |
| O=[N+]([O-])c1cccc(Cl)c1-c1nc(-c2ccc(F)cc2)c(-c2ccncc2)[nH]1 [ZQX-25, 4-[2-(2-chloro-6-nitrophenyl)-4(5)-(4-fluorophenyl)-1H-imidazol-5(4)-yl]pyridine] | 0.0 | 0.0 | 544.3 | 15.6 | 163.6 | 1105.4 |  |
| COc1cccc(OC)c1-c1nc(-c2ccc(F)cc2)c(-c2ccncc2)[nH]1 [ZQX-18, 4-[2-(2,6-dimethoxyphenyl)-4(5)-(4-fluorophenyl)-1H-imidazol-5(4)-yl]pyridine] | 27.5 | 207.3 | 579.4 | 15.4 | 143.4 | 1065.1 |  |
| Fc1ccc(-c2nc(-c3ccccc3Br)[nH]c2-c2ccncc2)cc1 [ZQX-22, 4-[2-(2-bromophenyl)-4(5)-(4-fluorophenyl)-1H-imidazol-5(4)-yl]pyridine] | 26.2 | 166.5 | 623.0 | 24.4 | 284.4 | 1165.0 |  |
| Fc1ccc(-c2nc(-c3c(Cl)cccc3Cl)[nH]c2-c2ccncc2)cc1 [ZQX-15, 4-[2-(2,6-dichlorophenyl)-4(5)-(4-fluorophenyl)-1H-imidazol-5(4)-yl]pyridine] | 0.0 | 0.0 | 129.4 | 0.0 | 0.0 | 384.0 |  |
| COc1cc(O)c(-c2nc(-c3ccc(F)cc3)c(-c3ccncc3)[nH]2)c(OC)c1 [ZQX-26, 2-[4(5)-(4-fluorophenyl)-5(4)-(pyridin-4-yl)-1H-imidazol-2-yl]-3,5-dimethoxyphenol] | 30.9 | 233.9 | 757.8 | 8.3 | 88.2 | 1152.7 |  |
| COc1cccc(F)c1-c1nc(-c2ccc(F)cc2)c(-c2ccncc2)[nH]1 [ZQX-20, 4-[2-(2-fluoro-6-methoxyphenyl)-4(5)-(4-fluorophenyl)-1H-imidazol-5(4)-yl]pyridine] | 26.0 | 286.8 | 1145.3 | 37.3 | 331.1 | 996.2 | higher cardiogenic properties as SB203580 and IWP-2 |
| Fc1ccc(-c2nc(-c3c(F)cccc3Cl)[nH]c2-c2ccncc2)cc1 [ZQX-19, 4-[2-(2-chloro-6-fluorophenyl)-4(5)-(4-fluorophenyl)-1H-imidazol-5(4)-yl]pyridine] | 2.4 | 46.4 | 903.3 | 32.7 | 511.6 | 1616.9 | higher cardiogenic properties as SB203580 and IWP-2 |
| Fc1ccc(-c2nc(-c3c(F)cccc3Br)[nH]c2-c2ccncc2)cc1 [ZQX-21, 4-[2-(2-bromo-6-fluorophenyl)-4(5)-(4-fluorophenyl)-1H-imidazol-5(4)-yl]pyridine] | 0.0 | 0.0 | 1383.8 | 3.4 | 16.9 | 974.3 |  |
